The record followed here is ChEMBL document CHEMBL1177733, “Mayamycin, a cytotoxic polyketide from a Streptomyces strain isolated from the marine sponge Halichondria panicea” (J Nat Prod, 2010).

The subject of test [1] is Brevibacterium epidermidis. Nature of the test: Antibacterial activity against Brevibacterium epidermidis DSM 20660 after 14-16 hrs by microtiter plate assay. The following applies: DSM 20660, 14-16 h.
Another test relates to Dermabacter hominis. Nature of the test: Antibacterial activity against Dermabacter hominis DSM 7083 after 24 hrs by microtiter plate assay. The settings on record: DSM 7083, 24 h.
The next test concerns Mammaliicoccus lentus. As to the kind of experiment: Antibacterial activity against Staphylococcus lentus DSM 6672 after 14-16 hrs by microtiter plate assay. The following applies: DSM 6672, 14-16 h.
A further test concerns Cutibacterium acnes. Nature of the test: Antibacterial activity against Propionibacterium acnes DSM 1897 after 48 hrs by microtiter plate assay. The settings on record: DSM 1897, 48 h. It counts as functional, organism-based.
Another test relates to Xanthomonas campestris. Nature of the test: Antibacterial activity against Xanthomonas campestris DSM 2405 after 14-16 hrs by microtiter plate assay. The following applies: DSM 2405, 14-16 h.
A further test has as its system Bacillus subtilis. Nature of the test: Antibacterial activity against Bacillus subtilis DSM 347 after 14-16 hrs by microtiter plate assay. The following applies: DSM 347, 14-16 h.
Another test has as its system Pseudomonas aeruginosa. Nature of the test: Antibacterial activity against Pseudomonas aeruginosa DSM 50071 after 14-16 hrs by microtiter plate assay. The settings on record: DSM 50071, 14-16 h.
The nature of test [2]: Cytotoxicity against human RXF 486L cells by modified propidium iodide monolayer assay.
Test [3] in a line: Cytotoxicity against human LXFL529 cells after 24 hrs by propidium iodide monolayer assay. The settings on record: LXFL 529, 24 h.
A short description of test [4]: Cytotoxicity against human PAXF 1657L cells by modified propidium iodide monolayer assay.
A short description of test [5]: Cytotoxicity against human MAXF 401NL cells after 24 hrs by propidium iodide monolayer assay.
Test [6] is described as follows: Cytotoxicity against human GXF251L cells after 24 hrs by propidium iodide monolayer assay. The following applies: GXF 251L.
Test [7] is described as follows: Cytotoxicity against human MEXF 462NL cells by modified propidium iodide monolayer assay.
Another test has as its system HT-29. As to the kind of experiment: Cytotoxicity against human HT-29 cells after 24 hrs by CellTiter-BlueCell viability assay. The class given is functional, cell-based. The following applies: HT-29, 24 h. A general note: The colour change of resazurin is a common sign of viable cells or microbes.
The subject of the next test is Staphylococcus aureus. Nature of the test: Antibacterial activity against Staphylococcus aureus ATCC 12600 after 48 hrs by microtiter plate assay. The class given is functional, organism-based. The settings on record: ATCC 12600, 48 h.

Structures are written as SMILES.

A word on the IC50: it is the midpoint of a concentration-inhibition curve. Low readings indicate greater potency, high ones weaker potency. As for `CN(C)[C@@H]1C(O)=C(C(N)=O)C(=O)[C@@]2(O)C(O)=C3C(=O)c4c(O)cccc4[C@@](C)(O)[C@H]3C[C@@H]12` [TETRACYCLINE], the IC50 in [1] was 13.9 µM; in the test on Dermabacter hominis, 1.2 µM.
In the case of `O=C(N[C@H](CO)[C@H](O)c1ccc([N+](=O)[O-])cc1)C(Cl)Cl` [CHLORAMPHENICOL], the IC50 in the test with Mammaliicoccus lentus was 2.3 µM; in the test on Cutibacterium acnes, 1 µM; in the test on Xanthomonas campestris, 3.6 µM; with Bacillus subtilis, 9 µM; in the test with Pseudomonas aeruginosa, 27.3 µM.
In the case of `COc1cccc2c1C(=O)c1c(O)c3c(c(O)c1C2=O)C[C@@](O)(C(=O)CO)C[C@@H]3O[C@H]1C[C@H](N)[C@H](O)[C@H](C)O1` [DOXORUBICIN], the IC50 in [2] is not above 0.052 µM; in test [3], less than 0.052 µM; in [4] it was less than 0.052 µM; in test [5], less than 0.052 µM; in test [6], less than 0.052 µM; in [7] it was less than 0.052 µM.
As for `CC/C(=C(\c1ccccc1)c1ccc(OCCN(C)C)cc1)c1ccccc1` [TAMOXIFEN], half-maximal inhibition with HT-29 (IC50) required 38.6 µM.
`COc1c(N2C[C@@H]3CCCN[C@@H]3C2)c(F)cc2c(=O)c(C(=O)O)cn(C3CC3)c12` [MOXIFLOXACIN] registered an IC50 in the test on Staphylococcus aureus of 7.5 µM. This counts as single-digit micromolar.
